The values that follow come from patent US20160050919A1, “ACETYL-COA CARBOXYLASE INHIBITOR HERBICIDE AND AUXIN HERBICIDE FORMULATIONS” (Nufarm Americas, Inc., priority 2014, published 2016).

The structures appear in SMILES notation.

The nature of data set [1]: Stability of active ingredients in the formulation, two weeks at 54° C. The conditions noted are these: for % wt after 2 week at 54° C. / Initial % wt: formulation of Table 5 (emulsion).
The nature of data set [2]: Stability of fenoxaprop-p-ethyl in the formulation at ambient temperature (~22° C.). The format is physicochemical.
Description: The formulation described in table 1 was tested for stability of all three active ingredients for two weeks at 54° C.
Where [3] appears, read: formulation of table 1 (micro emulsion, pH 6.7), two weeks at 54° C.
Where [4] appears, read: formulation of table 3 (emulsifiable concentrate), two weeks at 54° C.

Consider `COc1c(Cl)ccc(Cl)c1C(=O)O` [Dicamba], for which, in data set [1], the “% wt after 2 week at 54° C.” value was determined as 0.45 % wt and the Initial % wt worked out at 0.64 % wt. Further, the “stability of active ingredient” value in data set [1] (setting [3]) was “remained unchanged”. In addition, the “stability of active ingredient” value in data set [1] (setting [4]) is given as “remained unchanged”.

With `Cc1cc(Cl)ccc1O[C@@H](C)C(=O)O` [MCPP-p], in data set [1], the “% wt after 2 week at 54° C.” value stood at 1.39 % wt and the Initial % wt amounted to 1.53 % wt.

Take `O=C(O)COc1nc(Cl)c(Cl)cc1Cl` [Triclopyr, Triclopyr ACID]: in data set [1], the “% wt after 2 week at 54° C.” value is 1.75 % wt and the Initial % wt was determined as 1.78 % wt.

On to `CCOC(=O)[C@@H](C)Oc1ccc(Oc2nc3ccc(Cl)cc3o2)cc1` [fenoxaprop-p-ethyl, Fenoxaprop-p-ethyl], for which the “fenoxaprop-p-ethyl content, 2-week” value in data set [2] (formulation of table 1, 2 weeks) was 2.61 wt %. Further, the “fenoxaprop-p-ethyl content, 4-week” value in data set [2] (formulation of table 1, 4 weeks) amounted to 2.24 wt %. Also, the “fenoxaprop-p-ethyl content, 6-week” value in data set [2] (formulation of table 1, 6 weeks) was 2.15 wt %. Further, in data set [2] (formulation of table 1, 8 weeks), the “fenoxaprop-p-ethyl content, 8-week” value is 1.91 wt %. In addition, the “fenoxaprop-p-ethyl content, 12-week” value in data set [2] (formulation of table 1, 12 weeks) came out at 1.28 wt %. The “fenoxaprop-p-ethyl content, 14-week” value in data set [2] (formulation of table 1, 14 weeks) was 0.87 wt %. Further, the “fenoxaprop-p-ethyl content, Initial” value in data set [2] (formulation of table 1, initial) turned out to be 2.82 wt %. In addition, in data set [1], the “% wt after 2 week at 54° C.” value turned out to be 0.60 % wt and the Initial % wt came out at 0.60 % wt. Further, the recovered after storage in data set [1] (setting [3]) is 1%.

On to `CCCCCCC(C)OC(=O)COc1nc(F)c(Cl)c(N)c1Cl` (centres unmarked) [fluroxypyr MHE, Fluroxypyr MHE], for which the “stability of active ingredient” value in data set [1] (setting [3]) and in data set [1] (setting [4]) was “remained unchanged” throughout.
